Assay results published in patent publication US10413559B2, “Method for treating demyelinating disease” (OCHANOMIZU UNIVERSITY, priority 2013, dated 2019).

Columns and labels:
[1] = test system: demyelination model mice (0.2% cuprizone), corpus callosum; assay: Histological staining (Black Gold II) of corpus callosum and evaluation of demyelination (Example 2); format: in vivo, C57BL/6j mice; details: intraperitoneal 1.6 mg/kg/day for 5 weeks, FIG. 3, FIG. 4
Description: 10-week-old male C57BL/6j mice (Tokyo Laboratory Animals Science Co., Ltd., Tokyo, Japan) were fed by the discretionary intake of a mash feed (CLEA Japan, Inc.) that contained 0.2% cuprizone (biscyclohexanone oxalyl hydrazone; Merck KGaA, Darmstadt, Germany) for 5 weeks until demyelination progressed most, so as to produce demyelination model mice involving demyelination caused by oligodendrocyte-specific cell death. To obtain tissues to be used for histological analysis, a mouse was subjected to perfusion fixation through the heart with 4% paraformaldehyde, and the resulting brain tissues were then excised from the mouse. Thereafter, the tissues were immobilized and infiltrated with 30% sucrose. Thereafter, a frozen tissue block was prepared and was then sliced in a cryostat. The cPA used in the experiment was the same cPA (16:0) as that used in Example 1, and the carba-cPA was 2 ccPA (16:1). The cPA and 2 ccPA were chemically purified (Biochimica et Biophysica Acta, Emi Nozaki 2011), and were then dissolved in a 0.9% saline. […] For the analysis of the level of myelin, using Image J 1.46r software, the stained level in the corpus callosum area was measured, and the demyelination level was then evaluated, while setting the control as 100%.

[2] = test system: demyelination model mice (0.2% cuprizone); assay: Test of motor function impairment using rotarod; format: in vivo, C57BL/6j mice; details: intraperitoneal 1.6 mg/kg/day for 5 weeks, 28 rpm, 300 seconds, FIG. 9, FIG. 10
Description: 10-week-old male C57BL/6j mice (Tokyo Laboratory Animals Science Co., Ltd., Tokyo, Japan) were fed by the discretionary intake of a mash feed (CLEA Japan, Inc.) that contained 0.2% cuprizone (biscyclohexanone oxalyl hydrazone; Merck KGaA, Darmstadt, Germany) for 5 weeks until demyelination progressed most, so as to produce demyelination model mice involving demyelination caused by oligodendrocyte-specific cell death. The cPA used in the experiment was the same cPA (16:0) as that used in Example 1, and the carba-cPA was 2 ccPA (16:1). The cPA and 2 ccPA were chemically purified (Biochimica et Biophysica Acta, Emi Nozaki 2011), and were then dissolved in a 0.9% saline. […] The locomotion time on the rod was evaluated by measuring the time required for the mice to fall from the rotating rod within a record time of 300 seconds. Moreover, even after the mice had fallen from the rod, they were forced to continue their activity immediately after the falling, so that a total number of the activities from falling from the rod to holding on to the rod for 300 seconds (a number of falls and flips) was measured and evaluated. The data of the test of motor function impairment were analyzed according to a non-parametric method using a Kruskal-Wallis test. All of other data were analyzed according to a one-way ANOVA method using a Newman-Keulis test. […]

[3] = test system: GFAP, Iba1, PDGFRa, P2rx7, Nlrp3 gene expression in corpus callosum; assay: Genetic analysis using Q-PCR of corpus callosum tissues; format: in vivo, C57BL/6j mice; details: cuprizone mice; intraperitoneal 1.6 mg/kg/day for 5 weeks; FIG. 6-8
Description: 10-week-old male C57BL/6j mice (Tokyo Laboratory Animals Science Co., Ltd., Tokyo, Japan) were fed by the discretionary intake of a mash feed (CLEA Japan, Inc.) that contained 0.2% cuprizone (biscyclohexanone oxalyl hydrazone; Merck KGaA, Darmstadt, Germany) for 5 weeks until demyelination progressed most, so as to produce demyelination model mice involving demyelination caused by oligodendrocyte-specific cell death.
To obtain mouse corpus callosum tissues to be used for genetic analysis, mouse brain was removed, and the corpus callosum tissues were then collected from the brain. […]
mRNA was extracted from the frozen corpus callosum tissues using ISOGEN (Nippon Gene Co., Ltd., Tokyo, Japan), was then dissolved in RNase free molecular grade water (Takara Bio Inc., Shiga, Japan), and was then preserved at −80° C. […] Gene expression was detected using 7900 Sequence Detection System (Applied Biosystems). […] The gene expression level was calculated by a ΔΔCT method. Data were analyzed by a relative quantification method. A relative change in the gene expression was analyzed, while setting the gene expression level in a control mouse at 100%.

[4] = test system: demyelination model mice (0.2% cuprizone); assay: Myelin level by Black Gold staining in cuprizone demyelination model mice (Example 1); format: in vivo, C57BL/6 mice; details: intraperitoneal 40 μg/200 μl saline/day for 5 weeks, FIG. 2
Experimental: 10-week-old male C57BL/6 mice were fed with a mash feed containing 0.2% cuprizone for five weeks until the most significant demyelination occurred, so as to produce demyelination model mice. cPA and carba-cPA (cPA) powders were each dissolved in a saline, and the obtained solutions were each administered intraperitoneally at a dose of 40 μg/200 μl saline/day to the mice every day for 5 weeks. On the other hand, to negative control mice, a saline (200 μl/day) was intraperitoneally administered in the same manner as described above. The mice, to which the test compound had been administered, were subjected to perfusion fixation with 4% paraformaldehyde, and sections to be used for frozen tissue staining (30 μm) were then prepared in a cryostat (FIG. 1). The level of myelin in each mouse was measured by Black Gold staining, and the demyelination level was then measured based on the stained level (FIG. 2).

cultured animal cells = details: Murakami-Murofushi et al. 1992; cited from earlier work
DNA polymerase α = target: T1, DNA polymerase α (Homo sapiens, UniProt P09884); details: Murakami-Murofushi et al. 1992; cited from earlier work
T1 sequence (P09884 1-1462): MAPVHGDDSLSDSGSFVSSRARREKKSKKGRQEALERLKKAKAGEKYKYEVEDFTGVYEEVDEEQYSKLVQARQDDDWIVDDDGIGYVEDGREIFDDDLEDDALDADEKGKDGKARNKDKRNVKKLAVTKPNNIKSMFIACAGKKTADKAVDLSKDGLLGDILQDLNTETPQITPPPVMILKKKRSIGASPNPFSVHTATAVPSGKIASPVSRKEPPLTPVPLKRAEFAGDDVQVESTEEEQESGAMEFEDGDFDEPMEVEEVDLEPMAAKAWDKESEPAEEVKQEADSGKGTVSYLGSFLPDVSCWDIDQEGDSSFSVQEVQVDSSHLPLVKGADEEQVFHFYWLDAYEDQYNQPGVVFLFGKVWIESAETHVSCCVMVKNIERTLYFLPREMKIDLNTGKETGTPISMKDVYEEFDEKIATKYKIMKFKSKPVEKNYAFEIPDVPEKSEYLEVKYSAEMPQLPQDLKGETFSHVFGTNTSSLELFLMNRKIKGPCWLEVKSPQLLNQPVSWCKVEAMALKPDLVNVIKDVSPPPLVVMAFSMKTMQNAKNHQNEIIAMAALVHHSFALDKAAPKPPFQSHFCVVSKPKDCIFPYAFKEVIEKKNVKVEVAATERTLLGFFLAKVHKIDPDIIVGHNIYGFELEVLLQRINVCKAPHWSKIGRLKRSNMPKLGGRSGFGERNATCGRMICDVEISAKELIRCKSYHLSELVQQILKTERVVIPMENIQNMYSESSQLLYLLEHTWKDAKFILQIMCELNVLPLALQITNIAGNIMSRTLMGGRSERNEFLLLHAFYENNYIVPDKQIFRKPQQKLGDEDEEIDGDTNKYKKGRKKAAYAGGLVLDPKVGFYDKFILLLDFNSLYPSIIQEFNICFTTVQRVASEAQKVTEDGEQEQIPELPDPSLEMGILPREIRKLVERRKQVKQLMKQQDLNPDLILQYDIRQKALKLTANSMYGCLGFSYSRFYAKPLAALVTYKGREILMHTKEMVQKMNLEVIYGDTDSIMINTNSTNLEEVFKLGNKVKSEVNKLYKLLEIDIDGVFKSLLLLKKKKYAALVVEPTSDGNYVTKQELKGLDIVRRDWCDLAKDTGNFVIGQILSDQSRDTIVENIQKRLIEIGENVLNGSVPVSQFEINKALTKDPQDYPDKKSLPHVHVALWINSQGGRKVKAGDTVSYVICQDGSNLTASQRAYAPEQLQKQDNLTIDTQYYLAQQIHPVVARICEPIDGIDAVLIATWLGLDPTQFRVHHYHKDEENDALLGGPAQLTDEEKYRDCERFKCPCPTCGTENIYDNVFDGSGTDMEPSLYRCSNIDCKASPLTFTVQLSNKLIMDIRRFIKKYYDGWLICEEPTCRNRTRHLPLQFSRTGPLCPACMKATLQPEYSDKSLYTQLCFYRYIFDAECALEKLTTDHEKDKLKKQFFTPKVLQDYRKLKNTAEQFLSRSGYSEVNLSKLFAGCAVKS

## CCCCCC/C=C\CCCCCCCC(=O)OCC1COP(=O)(O)C1 (stereo not shown) [2 ccPA, palmitoleoyl 2-carba-cPA]
[1]
  demyelination level in corpus callosum (Black Gold II staining): demyelination is suppressed
[2]
  motor function impairment (rotarod): motor function impairment is improved
[3]
  nerve inflammation (gene expression by Q-PCR): nerve inflammation is suppressed
[4]
  level of myelin (Black Gold staining) versus control mouse: higher than the level of myelin in a control mouse

## CCCCCC[C@@H]1C[C@@H]1CCCCCCCC(=O)OC[C@@H]1COP(=O)([O-])O1.[Na+] [PHYLPA]
Cultured animal cells
  proliferation of cultured animal cells: suppressing proliferation of cultured animal cells
DNA polymerase α
  activity of DNA polymerase α: suppressing the activity of DNA polymerase α

## CCCCCCCCC=CCCCCCCCC(=O)OCC1COP(=O)(O)C1 (stereo not shown) [2 ccPA (18:1), oleoyl 2-carba-cPA]
[4]
  level of myelin (Black Gold staining) versus control mouse: the same results as in the case of cPA (16:0) and 2 ccPA (16:1) were obtained
